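Protocol summary: plate cells (96-well), add compound at 5 concentrations, incubate 48 h, interpolate endpoints linearly. TGI denotes the concentration required for complete inhibition of growth.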
Experiments:
Assay in all cases: DTP human tumour cell line panel, 48 h
786-0 renal = tested on: 786-0 renal
A549 NSCLC = tested on: A549 NSCLC
ACHN renal = tested on: ACHN renal
BT-549 breast = tested on: BT-549 breast
CAKI-1 renal = tested on: CAKI-1 renal
CCRF-CEM leukemia = tested on: CCRF-CEM leukemia
COLO 205 colon = tested on: COLO 205 colon
DU-145 prostate = tested on: DU-145 prostate
EKVX NSCLC = tested on: EKVX NSCLC
HCC-2998 colon = tested on: HCC-2998 colon
HCT-116 colon = tested on: HCT-116 colon
HCT-15 colon = tested on: HCT-15 colon
HL-60(TB) leukemia = tested on: HL-60(TB) leukemia
HOP-92 NSCLC = tested on: HOP-92 NSCLC
HT29 colon = tested on: HT29 colon
IGROV1 ovarian = tested on: IGROV1 ovarian
K-562 leukemia = tested on: K-562 leukemia
KM12 colon = tested on: KM12 colon
LOX IMVI melanoma = tested on: LOX IMVI melanoma
M14 melanoma = tested on: M14 melanoma
MALME-3M melanoma = tested on: MALME-3M melanoma
MCF7 breast = tested on: MCF7 breast
MDA-MB-231 breast = tested on: MDA-MB-231 breast
MDA-MB-435 = tested on: MDA-MB-435
MDA-N = tested on: MDA-N
MOLT-4 leukemia = tested on: MOLT-4 leukemia
NCI-H226 lung = tested on: NCI-H226 lung
NCI-H23 lung = tested on: NCI-H23 lung
NCI-H460 lung = tested on: NCI-H460 lung
NCI-H522 lung = tested on: NCI-H522 lung
NCI/ADR-RES ovarian = tested on: NCI/ADR-RES ovarian
OVCAR-3 ovarian = tested on: OVCAR-3 ovarian
OVCAR-4 ovarian = tested on: OVCAR-4 ovarian
OVCAR-5 ovarian = tested on: OVCAR-5 ovarian
OVCAR-8 ovarian = tested on: OVCAR-8 ovarian
PC-3 prostate = tested on: PC-3 prostate
RXF 393 renal = tested on: RXF 393 renal
SF-295 CNS = tested on: SF-295 CNS
SF-539 CNS = tested on: SF-539 CNS
SK-MEL-2 melanoma = tested on: SK-MEL-2 melanoma
SK-MEL-28 melanoma = tested on: SK-MEL-28 melanoma
SK-MEL-5 melanoma = tested on: SK-MEL-5 melanoma
SK-OV-3 ovarian = tested on: SK-OV-3 ovarian
SN12C renal = tested on: SN12C renal
SNB-19 CNS = tested on: SNB-19 CNS
SNB-75 CNS = tested on: SNB-75 CNS
SR leukemia = tested on: SR leukemia
SW-620 colon = tested on: SW-620 colon
T-47D breast = tested on: T-47D breast
TK-10 renal = tested on: TK-10 renal
U251 CNS = tested on: U251 CNS
UACC-257 melanoma = tested on: UACC-257 melanoma
UACC-62 melanoma = tested on: UACC-62 melanoma
UO-31 renal = tested on: UO-31 renal
A498 renal = tested on: A498 renal
HOP-62 NSCLC = tested on: HOP-62 NSCLC
HS 578T breast = tested on: HS 578T breast
RPMI-8226 leukemia = tested on: RPMI-8226 leukemia
SF-268 CNS = tested on: SF-268 CNS

Measured: TGI

Nc1c2ccccc2nc2c1ccc1ncccc12
52.6 µM: KM12 colon
39 µM: CCRF-CEM leukemia
42.1 µM: SK-MEL-2 melanoma
39.1 µM: HCC-2998 colon
98.4 µM: RXF 393 renal
43 µM: M14 melanoma
38.3 µM: NCI-H522 lung
74.7 µM: MDA-N
41 µM: ACHN renal
40.2 µM: UO-31 renal
37.8 µM: UACC-62 melanoma
53.5 µM: LOX IMVI melanoma
43.9 µM: NCI-H226 lung
27 µM: MALME-3M melanoma
20.4 µM: HL-60(TB) leukemia
47.4 µM: NCI-H460 lung
49.9 µM: SF-539 CNS
88.6 µM: K-562 leukemia
96.1 µM: MDA-MB-231 breast
89.1 µM: NCI/ADR-RES ovarian
72.1 µM: MCF7 breast
75.6 µM: NCI-H23 lung
99.4 µM: SNB-75 CNS
92.1 µM: CAKI-1 renal
63 µM: OVCAR-4 ovarian
not listed: A498 renal | HOP-62 NSCLC | HS 578T breast | RPMI-8226 leukemia | SF-268 CNS
> 100 µM: all other assays above

COP(=O)(O)/C=C/C(NC(=O)C(Cl)(Cl)Cl)c1ccccc1 (centres undefined)
not listed: CCRF-CEM leukemia | SF-539 CNS | SR leukemia
> 100 µM: all other assays above

CC(C)=C[C@@H]1C[C@H](n2cc(C)c(=O)[nH]c2=O)ON1CCO
not listed: BT-549 breast | HCC-2998 colon | NCI-H23 lung
> 100 µM: all other assays above

N#Cc1nc(-c2cc([N+](=O)[O-])cc([N+](=O)[O-])c2)oc1N
not listed: OVCAR-3 ovarian | OVCAR-5 ovarian | SK-MEL-2 melanoma | U251 CNS | A498 renal
> 10 µM: all other assays above

O=C(NC(Cc1c[nH]c2ccccc12)C(=O)O)/C(=C/c1ccccc1O)NC(=O)c1ccccc1 (centres undefined)
39.7 µM: NCI/ADR-RES ovarian
40.6 µM: SF-539 CNS
73.3 µM: HS 578T breast
37 µM: SF-295 CNS
18.7 µM: UO-31 renal
46.9 µM: 786-0 renal
52.5 µM: BT-549 breast
45.6 µM: SF-268 CNS
61.5 µM: NCI-H226 lung
65 µM: MDA-MB-231 breast
24.9 µM: MCF7 breast
56.7 µM: SK-OV-3 ovarian
38.5 µM: SNB-75 CNS
28.9 µM: OVCAR-8 ovarian
63.9 µM: SN12C renal
36.9 µM: CAKI-1 renal
33.3 µM: ACHN renal
75.5 µM: HOP-92 NSCLC
not listed: OVCAR-3 ovarian | PC-3 prostate | SK-MEL-2 melanoma | HOP-62 NSCLC
> 100 µM: all other assays above

CCCN=Cc1cc(Cc2ccc(O)c(C=NCCC)c2)ccc1O
32.3 µM: A549 NSCLC
9.22 µM: U251 CNS
8.03 µM: HOP-92 NSCLC
31.1 µM: DU-145 prostate
37.7 µM: RXF 393 renal
73.8 µM: CAKI-1 renal
8.97 µM: A498 renal
26.4 µM: EKVX NSCLC
32.1 µM: 786-0 renal
50.5 µM: MALME-3M melanoma
33.5 µM: MDA-MB-231 breast
20.4 µM: OVCAR-8 ovarian
12.3 µM: HCT-15 colon
60.8 µM: UACC-257 melanoma
3.71 µM: MOLT-4 leukemia
27.8 µM: HCC-2998 colon
7.35 µM: M14 melanoma
53.4 µM: ACHN renal
14.4 µM: OVCAR-3 ovarian
9.59 µM: SK-MEL-2 melanoma
45.1 µM: NCI-H522 lung
4.71 µM: K-562 leukemia
57.4 µM: TK-10 renal
34.2 µM: COLO 205 colon
86.1 µM: OVCAR-4 ovarian
> 100 µM: BT-549 breast | HOP-62 NSCLC | MDA-MB-435
15.3 µM: SN12C renal
82.4 µM: SK-OV-3 ovarian
59.6 µM: NCI/ADR-RES ovarian
15.9 µM: SW-620 colon
13.4 µM: LOX IMVI melanoma
6.33 µM: T-47D breast
27.6 µM: HT29 colon
51.9 µM: NCI-H460 lung
92.2 µM: HS 578T breast
9.67 µM: SNB-75 CNS
37.2 µM: IGROV1 ovarian
22 µM: KM12 colon
9 µM: SF-539 CNS
5 µM: HL-60(TB) leukemia
7.19 µM: HCT-116 colon
22.7 µM: UACC-62 melanoma
51.2 µM: NCI-H226 lung
10.1 µM: MDA-N
26.2 µM: NCI-H23 lung
5.89 µM: PC-3 prostate
52.5 µM: SF-295 CNS
6.87 µM: MCF7 breast
36.6 µM: OVCAR-5 ovarian
17.2 µM: SK-MEL-5 melanoma
12.2 µM: SNB-19 CNS
36.3 µM: UO-31 renal
46.4 µM: SF-268 CNS

COc1cc(OCc2ccc3oc(=O)c(-c4ccccc4)nc3c2)cc(OC)c1OC
not listed: CAKI-1 renal | EKVX NSCLC | HL-60(TB) leukemia | HOP-92 NSCLC | KM12 colon
> 100 µM: all other assays above

Reference: PubChem BioAssay (NCI)
